From US20250360218A1, “MITOCHONDRIA-TARGETING CANCER THERAPEUTIC COMPOSITION” (Seoul National University R&DB Foundation, priority 2022, published 2025)

Biological target: TSPO (Homo sapiens, UniProt P30536)
Assay: protein binding capacity for TSPO
Method: In order to find the conjugation position of IR780, a photosensitizer according to Example of the present invention, and an imidazopyridine derivative, a molecular docking simulation was performed. […] Accordingly, the compound of the present invention, a compound targeting mitochondria in cancer cells, was designed and synthesized so that IR780 was introduced by selecting a position (position Y in FIG. 1B) where steric hindrance is not expected, and then its protein binding capacity was measured.

Sequence of TSPO (P30536 whole entry): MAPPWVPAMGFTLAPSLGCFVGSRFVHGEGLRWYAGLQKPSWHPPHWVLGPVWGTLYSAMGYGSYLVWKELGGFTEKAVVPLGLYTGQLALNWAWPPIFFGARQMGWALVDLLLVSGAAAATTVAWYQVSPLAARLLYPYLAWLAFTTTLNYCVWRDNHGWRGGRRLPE

- Ki: 201 nM
SMILES: CCCN(CCC)C(=O)Cc1c(-c2ccc(Cl)cc2)nc2c(NC(=S)Nc3ccc(SC4=C(/C=C/C5=[N+](CCC)c6ccccc6C5(C)C)CCC/C4=C\C=C4\N(CCC)c5ccccc5C4(C)C)cc3)cccn12
